Source: patent publication US8088410B2, “25-hydroxy Vitamin D3 compositions” (DSM IP Assets B.V., priority 2002, dated 2012)

Assay: Premix stability: percent retention of 25-hydroxy Vitamin D3 in stored feed premixes (Example 7)
Type: physicochemical
Details: Basic and Vitamin Premixes, stored at 25° C. and 35° C. up to 3 months (FIGS. 6 and 7)
Method: Three premixes for use in animal feed were prepared having the following components in the following proportions by percent weight based on the total weight of the premix.
Each of these premix compositions was prepared using a microencapsulated oil of the present invention or a prior art beadlet containing 25-hydroxy Vitamin D3. In addition, a control formulation was prepared, in which Vitamin D3 was substituted for the 25-hydroxy Vitamin D3. Each of the premixes was stored at 25° C. and 35° C., for a length of time up to 3 months. The percent retention of the 25-hydroxy Vitamin D3 was determined at each time and temperature.

C=C1CCC(O)C/C1=C/C=C1\CCCC2(C)C1CCC2C(C)CCCC(C)(C)O (stereo not shown) [25-hydroxy Vitamin D3]
stability of 25-hydroxy Vitamin D3 (% retention) in premix: less than that of Vitamin D3
